Measurements as given in article PMC4266338 (ACS Medicinal Chemistry Letters, 2014).
Each block holds one molecule with its values, some of them ahead of it.

Legend:
CHOP = test: CHO-CHOP-luciferase reporter assay; assay type: cell-based, Chinese hamster; details: for UPR CHOP AC50 ± SEM: CHO-CHOP-luciferase cells, averaged from n ≥ 4 experiments
A253 = test: OSCC proliferation assay A253; assay type: cell-based, human; details: A253, 24 h
[1] = Hepatic microsome stability, human; assay type: in vitro ADME; details: 37°C, after 1 hr
PAMPA permeability = assay type: in vitro ADME; details: donor pH 5.0, 6.2, and 7.4
[2] = Hepatic microsome stability, mouse; assay type: in vitro ADME; details: 37°C, after 1 hr
[3] = test system: human tumor cell line panel (NCI-60); test: NCI-60 human tumor cell line panel; assay type: cell-based; details: colon, melanoma, and renal cancer cell lines
[4] = test system: Chop knockout murine embryonic fibroblast (MEF) cells; test: MEF proliferation assay, Chop knockout; assay type: cell-based, mouse; details: concentrations up to 20 μM, 24 h, Figure S1
[5] = Mouse pharmacokinetics IV and IP; details: male CD-1 mice, IV 2 mg/kg single dose
HN6 = test: OSCC proliferation assay HN6; assay type: cell-based, human; details: HN6, 24 h
H460/T800 = test: OSCC proliferation assay H460/T800; assay type: cell-based, human; details: H460/T800, 24 h
Aqueous solubility = assay type: physicochemical; details: through a biologically relevant pH range
[6] = Chemical stability toward thiol nucleophiles; assay type: physicochemical; details: 10 μM in PBS pH 7.4, 1% DMSO, 8 h, room temperature
HN30 = test: OSCC proliferation assay HN30; assay type: cell-based; details: Homo sapiens, 24 h, read-out: potency, dose–response proliferation assay

UPR CHOP AC50 ± SEM (CHOP): loss of activity
Structure (SMILES): O=C(Nc1ccc(S(=O)(=O)N2CCOCC2)cc1)c1ccco1 [Compound 27]

UPR CHOP AC50 ± SEM (CHOP): loss of activity
Structure (SMILES): Cc1ccc(C(=O)Nc2ccc(S(=O)(=O)N3CCOCC3)cc2)o1 [Compound 28]

UPR CHOP AC50 ± SEM (CHOP): loss of activity
Structure (SMILES): O=C(Nc1ccc(S(=O)(=O)N2CCOCC2)cc1)c1ccc(Br)o1 [Compound 29]

Structure (SMILES): O=C(Nc1ccc(S(=O)(=O)N2CCNCC2)cc1)c1ccc([N+](=O)[O-])o1 [Compound 8]
loss of activity (CHOP; CHOP activation relative to hit 3): ~14 fold

UPR CHOP AC50 ± SEM (CHOP): loss of activity
Structure (SMILES): CC1(C)CCN(S(=O)(=O)c2ccc(NC(=O)c3ccc(C(F)(F)F)o3)cc2)CC1 [Compound 30]

UPR CHOP AC50 ± SEM (CHOP): on par with activity observed with hit 3
Structure (SMILES): O=C(Nc1ccc(S(=O)(=O)N2CCC(O)CC2)cc1)c1ccc([N+](=O)[O-])o1 [Compound 9]

Hepatic Microsome Stability percent remaining [1]: almost completely metabolized
PAMPA permeability in words (PAMPA permeability): good permeability
Hepatic Microsome Stability percent remaining [2]: almost completely metabolized
IV dose cleared from circulation within [5]: ≤ 30 min
Aqueous stability in PBS and pION buffer (Aqueous solubility): 8.7–9.7 μM
compound remaining with dithiothreitol (DTT) ([6]; 5-fold excess DTT): 100%
compound remaining with glutathione (GSH) ([6]; 5-fold excess GSH): 100%
Structure (SMILES): O=C(Nc1ccc(S(=O)(=O)N2CCC(Cl)CC2)cc1)c1ccc([N+](=O)[O-])o1 [Compound 12]
sensitivity, dose–response proliferation assay (A253): more resistant
growth inhibition potency [3]: low micromolar potency
effect on Chop-null MEF cells [4]: unaffected
sensitivity, dose–response proliferation assay (HN6): more resistant
sensitivity, dose–response proliferation assay (H460/T800): more resistant
EC50 (HN30): 9 ± 1.1 µM
